Experimental data taken from the kinase profiling compilation of Christmann-Franck et al. (2016).

Tests used:
Assay in all cases: radiometric filter-binding kinase assay, Kinaseprofiler
MAP3K9 (human) = MAP3K9 (human) (UniProt P80192); settings: compound 10.0 µM; ATP 45 µM
PIM2 (human) = PIM2 (human) (UniProt Q9P1W9); settings: compound 10.0 µM; ATP 15 µM
RPS6KA2 KD1 KD2 (human) = RPS6KA2 KD1 KD2 (human) (UniProt Q15349); settings: compound 1.0 µM; ATP 10 µM
Chain of RPS6KA2 KD1 KD2 (human) (Q15349 whole entry, looked up): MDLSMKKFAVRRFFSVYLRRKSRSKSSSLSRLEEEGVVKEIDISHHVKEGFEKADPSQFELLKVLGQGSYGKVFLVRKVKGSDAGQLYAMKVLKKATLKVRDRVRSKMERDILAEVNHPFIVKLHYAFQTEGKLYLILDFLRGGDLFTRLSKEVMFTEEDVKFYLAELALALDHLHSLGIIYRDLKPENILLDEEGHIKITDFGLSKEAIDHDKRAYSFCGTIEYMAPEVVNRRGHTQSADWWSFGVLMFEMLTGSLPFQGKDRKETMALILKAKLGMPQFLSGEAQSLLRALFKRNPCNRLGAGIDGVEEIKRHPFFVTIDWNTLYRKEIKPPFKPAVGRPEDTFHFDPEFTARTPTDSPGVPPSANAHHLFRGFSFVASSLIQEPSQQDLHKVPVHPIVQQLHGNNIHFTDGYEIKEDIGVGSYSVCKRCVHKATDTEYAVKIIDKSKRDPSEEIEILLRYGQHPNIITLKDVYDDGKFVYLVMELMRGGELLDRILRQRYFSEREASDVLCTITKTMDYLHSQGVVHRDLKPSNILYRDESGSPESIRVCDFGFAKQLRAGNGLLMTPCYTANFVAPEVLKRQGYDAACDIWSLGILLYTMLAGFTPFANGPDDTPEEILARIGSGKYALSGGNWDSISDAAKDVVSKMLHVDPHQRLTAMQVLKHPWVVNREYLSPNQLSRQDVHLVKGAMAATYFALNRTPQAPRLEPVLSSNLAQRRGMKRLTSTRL

Chain of PIM2 (human) (Q9P1W9 whole entry, looked up): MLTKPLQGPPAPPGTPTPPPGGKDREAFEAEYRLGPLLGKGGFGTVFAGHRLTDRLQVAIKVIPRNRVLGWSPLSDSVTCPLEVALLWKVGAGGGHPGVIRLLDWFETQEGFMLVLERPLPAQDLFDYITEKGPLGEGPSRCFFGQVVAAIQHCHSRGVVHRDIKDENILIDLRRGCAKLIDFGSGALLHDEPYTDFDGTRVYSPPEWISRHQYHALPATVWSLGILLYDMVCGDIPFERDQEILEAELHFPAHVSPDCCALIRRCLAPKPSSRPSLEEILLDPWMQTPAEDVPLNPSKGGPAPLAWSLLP
Chain of MAP3K9 (human) (P80192 whole entry, looked up): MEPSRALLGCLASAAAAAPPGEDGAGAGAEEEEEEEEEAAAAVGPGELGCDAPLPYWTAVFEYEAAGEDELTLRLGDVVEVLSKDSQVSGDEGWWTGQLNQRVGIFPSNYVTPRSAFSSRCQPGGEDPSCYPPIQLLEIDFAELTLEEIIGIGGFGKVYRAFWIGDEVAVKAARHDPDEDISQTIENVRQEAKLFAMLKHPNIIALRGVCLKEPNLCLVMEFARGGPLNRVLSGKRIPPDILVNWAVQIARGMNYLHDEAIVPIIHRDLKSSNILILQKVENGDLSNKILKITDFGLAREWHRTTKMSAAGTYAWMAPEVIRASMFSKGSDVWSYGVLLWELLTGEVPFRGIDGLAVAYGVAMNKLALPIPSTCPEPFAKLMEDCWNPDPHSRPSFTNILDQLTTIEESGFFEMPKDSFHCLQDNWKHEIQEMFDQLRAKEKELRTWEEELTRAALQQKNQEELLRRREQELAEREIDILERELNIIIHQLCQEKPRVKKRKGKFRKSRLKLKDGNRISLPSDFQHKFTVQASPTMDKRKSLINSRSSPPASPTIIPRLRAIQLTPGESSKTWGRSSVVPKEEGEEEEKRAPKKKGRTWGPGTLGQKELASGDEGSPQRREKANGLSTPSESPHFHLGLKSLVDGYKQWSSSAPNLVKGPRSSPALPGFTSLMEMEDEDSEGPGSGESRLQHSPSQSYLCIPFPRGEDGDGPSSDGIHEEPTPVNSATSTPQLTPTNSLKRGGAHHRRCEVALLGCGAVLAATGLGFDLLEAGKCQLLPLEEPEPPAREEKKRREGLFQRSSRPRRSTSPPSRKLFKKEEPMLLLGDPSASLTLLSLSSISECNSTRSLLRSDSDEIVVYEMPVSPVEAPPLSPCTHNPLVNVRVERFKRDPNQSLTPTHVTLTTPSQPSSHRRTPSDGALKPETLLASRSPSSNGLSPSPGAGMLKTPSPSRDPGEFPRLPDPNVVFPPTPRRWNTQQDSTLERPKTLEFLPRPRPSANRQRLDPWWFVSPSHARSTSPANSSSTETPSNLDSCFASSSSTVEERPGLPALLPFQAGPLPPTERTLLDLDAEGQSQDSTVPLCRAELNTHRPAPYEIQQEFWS

Compound: COC(=O)[C@]1(O)C[C@@H]2O[C@@]1(C)n1c3ccccc3c3c4c(c5c6ccccc6n2c5c31)C(=O)NC4
- residual activity (MAP3K9 (human)): 0%
- residual activity (PIM2 (human)): -2%
- residual activity (RPS6KA2 KD1 KD2 (human)): 0%
